Test systems include BT-549 breast; HCC-2998 colon; HCT-15 colon; K-562 leukemia; MALME-3M melanoma; SK-MEL-2 melanoma; SN12C renal; UACC-257 melanoma.
Holding throughout (test): DTP human tumour cell line panel, 48 h

The text below walks through data of PubChem BioAssay (NCI).

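The compound was tested at five concentrations on cells cultured in 96-well plates, with a 48-hour exposure period. GI50: concentration for 50% inhibition of growth. TGI: concentration producing complete growth inhibition.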 Where only a bound is given, the exact number is not on record here.

For orientation: TGI means the concentration giving total growth inhibition. Read a high TGI as less potent growth arrest. `C=C1C(=O)OC2C1CC(OC(C)=O)/C(C)=C/CCC1(C)OC21` (stereo unspecified): the TGI in the test with BT-549 breast, in the test with HCC-2998 colon, with HCT-15 colon, in the test with K-562 leukemia, with MALME-3M melanoma and with SK-MEL-2 melanoma was greater than 100 µM throughout. For the same compound, the TGI in the test with SN12C renal and in the test with UACC-257 melanoma was greater than 100 µM throughout.

For orientation: GI50 means the concentration at which growth is held to half of that of the control. With `COc1cc(/C=C2\CCC/C(=C\c3ccc(OCC4CO4)c(OC)c3)C2=O)ccc1OCC1CO1` (stereo unspecified), the GI50 in the test with BT-549 breast was 2.28 µM; in the test on HCC-2998 colon it was 2.25 µM; in the test on HCT-15 colon, 2.04 µM; with K-562 leukemia, 3.46 µM; in the test on MALME-3M melanoma, 1.95 µM; in the test on SK-MEL-2 melanoma, 2.43 µM. Further, the GI50 in the test with SN12C renal is 2.84 µM; in the test with UACC-257 melanoma, 1.82 µM. Moreover, the TGI is 5.3 µM with BT-549 breast; 4.75 µM with HCC-2998 colon; 4.59 µM in the test with HCT-15 colon; greater than 100 µM in the test with K-562 leukemia; 4.56 µM in the test with MALME-3M melanoma; 5.37 µM with SK-MEL-2 melanoma. Moreover, the values for the TGI in the test on SN12C renal and in the test on UACC-257 melanoma were 8.71 µM and 3.91 µM, respectively.

In the case of `CC(=O)NC1CONC1=O` (stereo unspecified), the TGI in the test on BT-549 breast, in the test on HCT-15 colon, with K-562 leukemia, with MALME-3M melanoma, with SK-MEL-2 melanoma and in the test with SN12C renal was greater than 100 µM in each case. For the same compound, in the test on UACC-257 melanoma, the TGI is greater than 100 µM.

Take `CNCCn1c(=O)c2cc(OC)c(OC)cc2c2cnc3cc4c(cc3c21)OCO4`: the concentration for 50% growth inhibition (GI50) in the test on BT-549 breast was 0.0309 µM; in the test with HCC-2998 colon, 0.0484 µM; in the test with HCT-15 colon it was 0.0359 µM; in the test with K-562 leukemia it was 0.0252 µM; in the test on MALME-3M melanoma it was 0.05 µM; with SK-MEL-2 melanoma it was 2.32 µM. The values for the GI50 with SN12C renal and in the test on UACC-257 melanoma were less than 0.01 µM and 0.0267 µM, respectively. The TGI in the test on BT-549 breast is 1.79 µM; with HCC-2998 colon it was 1.79 µM; in the test with HCT-15 colon, 1.55 µM; in the test on K-562 leukemia it was 2.2 µM; in the test on MALME-3M melanoma it was 5.75 µM; in the test with SK-MEL-2 melanoma it was 4.91 µM. For the same compound, the TGI with SN12C renal came to 1.25 µM; in the test on UACC-257 melanoma, 5.66 µM.

Take `COc1ccc(-c2cc(-c3ccc(Nc4ccnc5cc(Cl)ccc45)cc3)nc(N3CCOCC3)n2)cc1`: the GI50 with BT-549 breast is 2.73 µM; with HCC-2998 colon, greater than 100 µM; in the test with K-562 leukemia it was 6.18 µM; in the test on SK-MEL-2 melanoma, 11.7 µM. The TGI in the test with BT-549 breast is greater than 100 µM; with HCC-2998 colon it was greater than 100 µM; in the test with K-562 leukemia it was greater than 100 µM; with SK-MEL-2 melanoma it was 61.5 µM.

As to `Cn1cc(S(=O)(=O)N2CCC3=Cc4c(cnn4-c4ccc(F)cc4)C[C@]3(C(=O)c3cc(C(F)(F)F)ccn3)C2)cn1`, the GI50 in the test with BT-549 breast is 26.6 µM; with HCC-2998 colon, greater than 100 µM; with HCT-15 colon it was greater than 100 µM; in the test with K-562 leukemia, greater than 100 µM; with MALME-3M melanoma, greater than 100 µM; with SK-MEL-2 melanoma it was 88.2 µM. For the same compound, the GI50 in the test on SN12C renal and with UACC-257 melanoma was greater than 100 µM in each case. In addition, the TGI with BT-549 breast, with HCC-2998 colon, with HCT-15 colon, in the test on K-562 leukemia, with MALME-3M melanoma and with SK-MEL-2 melanoma was greater than 100 µM throughout. The TGI in the test on SN12C renal and with UACC-257 melanoma was greater than 100 µM in each case.

As to `CC(C)(C)c1cc(C(=O)/C=C/c2ccc(C(=O)O)cc2)cc(C(C)(C)C)c1`, the TGI with BT-549 breast is 6.61 µM; with HCC-2998 colon it was 3.88 µM; with HCT-15 colon it was 4.12 µM; in the test on K-562 leukemia, greater than 100 µM; with MALME-3M melanoma, 7.99 µM; in the test with SK-MEL-2 melanoma, 12.7 µM. Moreover, the TGI in the test with SN12C renal amounted to 6.6 µM; with UACC-257 melanoma, 21.9 µM.

As to `NCCCOc1cc(Cl)ccc1NC(=O)c1cc2ccccc2cc1OCCCN`, the GI50 was 1.39 µM with HCC-2998 colon; 1.5 µM with HCT-15 colon; 1.72 µM in the test on K-562 leukemia; 1.65 µM in the test on MALME-3M melanoma; 1.58 µM with SK-MEL-2 melanoma; 1.58 µM with SN12C renal. Also, the GI50 with UACC-257 melanoma was 2.02 µM. Also, the TGI in the test on HCC-2998 colon was 2.82 µM; in the test on HCT-15 colon, 3.2 µM; in the test on K-562 leukemia, 4.12 µM; with MALME-3M melanoma it was 3.59 µM; in the test with SK-MEL-2 melanoma it was 3.19 µM; with SN12C renal, 3.23 µM. This compound showed a concentration for total growth inhibition (TGI) with UACC-257 melanoma of 3.69 µM.

For the compound `O=C(N/N=C/c1ccc(O)cc1O)c1cccnc1`, the GI50 with BT-549 breast was 7.06 µM; in the test with HCC-2998 colon it was 4.72 µM; in the test on HCT-15 colon, 0.614 µM; with MALME-3M melanoma it was 5.16 µM; in the test with SK-MEL-2 melanoma, 13.5 µM; with SN12C renal it was 3.58 µM. Further, in the test on UACC-257 melanoma, the GI50 was 3.33 µM. Moreover, the TGI is 81.6 µM in the test on BT-549 breast; greater than 100 µM in the test with HCC-2998 colon; greater than 100 µM with HCT-15 colon; 39.2 µM in the test with MALME-3M melanoma; 60.8 µM with SK-MEL-2 melanoma; 69 µM with SN12C renal. The TGI in the test with UACC-257 melanoma is 22.5 µM.

For `COc1ccc2c(c1)C(C)Cc1c(ncnc1-n1cnc3ccccc31)N2C` (stereo unspecified), the GI50 was 0.47 µM in the test with BT-549 breast; 0.922 µM in the test with HCC-2998 colon; 0.367 µM in the test with HCT-15 colon; 0.384 µM with K-562 leukemia; 0.357 µM with SK-MEL-2 melanoma; 0.958 µM in the test with SN12C renal. The GI50 with UACC-257 melanoma was 13.6 µM. Also, the TGI was 10.3 µM with BT-549 breast; 10.4 µM in the test with HCC-2998 colon; 10.9 µM with HCT-15 colon; greater than 100 µM in the test on K-562 leukemia; 24.6 µM in the test with SK-MEL-2 melanoma; 34 µM in the test on SN12C renal. This compound had a TGI in the test with UACC-257 melanoma of 26.6 µM.

For `Cc1cc(NCCCCNc2ccnc3cc(Cl)ccc23)nc(Nc2ccc(C(=O)N3CCCCC3)cc2)n1`, the GI50 in the test on BT-549 breast is 1.69 µM; with HCC-2998 colon, 1.82 µM; in the test on HCT-15 colon, 1.28 µM; with SK-MEL-2 melanoma, 2.05 µM; with UACC-257 melanoma, 1.89 µM. The TGI amounted to 3.21 µM in the test on BT-549 breast; 4.13 µM in the test with HCC-2998 colon; 3.13 µM in the test on HCT-15 colon; 3.9 µM with SK-MEL-2 melanoma; 3.42 µM in the test with UACC-257 melanoma.
